Assay results taken from patent publication US20190262323A1, “COMPOSITIONS AND METHODS FOR TREATING NEURODEGENERATIVE DISORDERS” (GEORGETOWN UNIVERSITY, priority 2016, published 2019).

Tests used:
[1] = test system: Tau [pS396]; assay: Human Tau [pS396] solid phase sandwich ELISA on brain tissue homogenates from treated transgenic APP mice; format: in vivo
Description: (§1) Transgenic mice harboring the Swedish, Dutch, and Iowa mutation for human amyloid beta-precursor protein were treated with intraperitoneal (IP) injections of 10 mg/kg, 5 mg/kg, 2.5 mg/kg, 1.25 mg/kg of LCB 03-0110 or 30 μL of dimethylsulfoxide (DMSO) every day for 1 week. LCB 03-0110 is a potent inhibitor of discoidin domain receptor 2 (DDR2) family tyrosine kinases. All animal experiments were conducted in full compliance with the recommendations of Georgetown University Animal Care and Use Committee (GUAUC). Fifteen mice were used for brain and blood extractions, and fifteen mice were used for drug treatments. Four transgenic APP mice were treated with DMSO, four transgenic APP mice were treated with 10 mg/kg of LCB 03-0110, four transgenic APP mice were treated with 5 mg/kg of LCB 03-0110, four transgenic APP mice were treated with 2.5 mg/kg of LCB 03-0110, and three transgenic APP mice were treated with 1.25 mg/kg of LCB 03-0110. Seven transgenic APP mice were treated with DMSO, and 7 transgenic APP mice were treated with 2.5 mg/kg of LCB.
(§2) Animals were deeply anesthetized with a mixture of Xylazine and Ketamine (1:8). Whole blood (500 μl) was collected via cardiac puncture and centrifuged at 2000×g to precipitate blood cells. The serum was collected for mass spectrometric analysis. To wash out the remaining blood from vessels and reduce contamination, animals were perfused with 25 ml of 1X phosphate buffered saline (PBS) for 5 min and the brains were collected. A hemisphere was frozen and stored at −80° C. for mass spectrometry studies and the other hemisphere was immediately homogenized in 2.0 ml lysis buffer (containing protease and phosphatase inhibitors) and labeled as a soluble protein fraction.
Human Tau [pS396] solid phase sandwich ELISA was performed on brain tissue homogenates from transgenic APP mice treated with LCB 03-0110 at 10 mg/kg, 5 mg/kg, 2.5 mg/kg, and 1.25 mg/kg. A monoclonal Tau capture antibody was coated onto micro-wells. 50 μl of soluble lysate was added to each well, allowing the Tau [pS396] antigen to bind to the immobilized capture antibody, and incubated for two hours at room temperature. After the two hour incubation, samples were washed and incubated with 100 μl of rabbit monoclonal tau [pS396] detection antibody and incubated for one hour at room temperature. Following extensive washing, a 100 μl of horseradish peroxidase labeled anti-rabbit IgG was added to each well and incubated for thirty minutes at room temperature. Samples were washed to remove all unbound enzyme. […] The magnitude of the absorbance for this developed color was proportional to the quantity of Tau […] proteins in the brain tissue homogenates. […] All statistics were performed using ANOVA with Tukey multiple comparison post-test and data were expressed as Mean±SD.

[2] = test system: human amyloid beta; assay: MILLIPLEX Human Amyloid Beta and Tau Panel, soluble and insoluble brain fractions; format: in vivo, transgenic APP mice; conditions: 2.5 mg/kg daily for 3 weeks
Description: as §1, with “Transgenic mice harboring the Swedish, Dutch, and Iowa mutation for human amyloid beta-precursor protein were treated with intraperitoneal (IP) injections of 10 mg/kg, 5 mg/kg, 2.5 mg/kg, 1.25 mg/kg of LCB 03-0110 or 30 μL of dimethylsulfoxide (DMSO) every day for 1 week.” left out
as §2
After removing the soluble supernatant, the tissue pellet was washed with 1×STEN buffer. […]
(§3) MILLIPLEX®: Cytokines and chemokines were measured in serum and brain with the Mouse Cytokine/Chemokine Magnetic Bead Panel (Cat MCYTOMAG-70K, EMD Millipore). Human amyloid beta and total tau was measured in brain using the Human Amyloid Beta and Tau Panel (Cat HNABTMAG-68K, EMD Millipore). AKT/mTOR signaling cascade phosphoproteins were measured using the Akt/mTOR Phosphoprotein Magnetic Bread 11-Plex Kit (Cat 48-611MAG, EMD Millipore). […]

[3] = test system: APP/Aβ, Aβ42, p-tau (AT180); assay: Western blot of soluble brain fractions of treated APP mice: amyloid and p-tau; format: in vivo, transgenic APP mice
Description: as §1
Brain tissues from transgenic APP mice treated with LCB 03-0110 at 10 mg/kg, 5 mg/kg, 2.5 mg/kg, and 1.25 mg/kg were homogenized in 1×STEN buffer, centrifuged at 10,000×g for 20 min at 4° C., and the supernatants containing the soluble fraction were collected. Soluble fractions were probed with mouse monoclonal anti-6E10 (1:1000), rabbit polyclonal anti-Ab42 (1:1000), mouse monoclonal anti-AT180 (1:1000), rabbit polyclonal anti-Beclin-1 (1:1000), rabbit polyclonal anti-Atg7 (1:1000), rabbit polyclonal anti-Atg12 (1:1000), rabbit polyclonal anti-LC3B (1:1000) and rabbit polyclonal anti-actin (1:1000).

[4] = Pharmacokinetic analysis of brain and serum by mass spectrometry; format: in vivo, C57BL/6 mice
Description: C57BL/6 mice received a single IP dose of 1.25, 2.5, 5, or 10 mg/kg LCB, and brain and serum were collected at 2, 4, 6, or 8 hours (n=3 per dose and time point). Animals injected with vehicle (DMSO) were used for background subtraction. Drug levels were determined at the Georgetown University Proteomics and Metabolomics Shared Resources (PMSR). Stock solution for LCB-03110 [(approximately 1 mg/mL each) was prepared in methanol/dichloromethane (50:50). The serial dilutions for each of the standards were produced for the study separately in methanol/HPLC grade water (50:50). Preparation of the calibration curve standards and quality samples (QC) was performed by mixing the stock solutions in blank samples. The final calibration concentration for LCB-03110 ranged from 0.1 ng/mL to 100 ng/mL. The QC concentrations were 30 ng/mL, 3 ng/mL and 0.3 ng/mL, respectively. Serum and brain samples were stored at −80° C. and then thawed to room temperature prior to preparation. The thawed serum samples (20 μL) were transfused to a tube containing 100 μL of water. The 500 μL extraction solvent and acetonitrile/methanol (50:50) was added to the sample. The mixture was vortexed and incubated on ice for 20 minutes to accelerate protein precipitation. After incubation, the samples were vortexed again and centrifuged at 13,000 rpm for 20 minutes at 4° C. The supernatant was then collected and transferred to a new tube, was dried using speed vac, and reconstituted in 200 μL of methanol/water (50:50). The mixture was spun again at 13,000 rpm for 20 minutes at 4° C. The supernatant was then collected into a mass spec sample tube cap and run in the mass spectrometer. For brain, a small section of the thawed brain sample from each animal was transferred to a flat bottom tube. 200 μL of methanol/water (90:10) was added, and the tissue was homogenized. Acetonitrile was then added to the mixture facilitating protein precipitation. The mixture was then incubated on ice for 10 minutes. After incubation, the samples were vortexed and centrifuged at 13,000 rpm for 20 minutes at 4° C. The supernatant was then collected and transferred to a new tube, dried using speed vac, and reconstituted in 200 μL of methanol/water (50:50). The mixture was centrifuged at 13,000 rpm for 20 minutes at 4° C. The supernatant was collected into a mass spec sample tube cap and run in the mass spectrometer. The samples were resolved on an Acquity UPLC BEH C18 […], 2.1×50 mm column online with a triple quadrupole mass spectrometer (Xevo-TQ-S, Waters Corporation, USA) operating in the multiple reaction monitoring (MRM) mode. The sample cone voltage and collision energies were optimized for both analytes to obtain maximum ion intensity for parent and daughter ions using “Intelli Start” feature of MassLynx software (Waters Corporation, USA). The instrument parameters were optimized to gain maximum specificity and sensitivity of ionization for the parent [m/z=438.25] and daughter ions [m/z=357.33]. Signal intensities from all MRM Q1/Q3 ion pairs for analytes were ranked to ensure selection of the most intense precursor and fragment ion pair for MRM-based quantitation. […] Analysis was performed with a six to eight-point calibration curve, the sample queue was randomized and solvent blanks were injected to assess sample carryover. MRM data were processed using TargetLynx 4.1. The relative quantification values of analytes were determined by calculating the ratio of peak areas of transitions of samples normalized to the peak area of the internal standard.

[5] = test system: Beclin, Atg7, Atg12, LC3-I, LC3-II; assay: Western blot of soluble brain fractions of treated APP mice: autophagy markers; format: in vivo, transgenic APP mice; conditions: 1.25 or 2.5 mg/kg
Description: as §1
Brain tissues from transgenic APP mice treated with LCB 03-0110 at 10 mg/kg, 5 mg/kg, 2.5 mg/kg, and 1.25 mg/kg were homogenized in 1×STEN buffer, centrifuged at 10,000×g for 20 min at 4° C., and the supernatants containing the soluble fraction were collected. […]

[6] = test system: cytokines and chemokines; assay: MILLIPLEX Mouse Cytokine/Chemokine Magnetic Bead Panel; format: in vivo, transgenic APP mice; conditions: 2.5 mg/kg or 1.25 mg/kg
Description: as §1
MILLIPLEX®: Cytokines and chemokines were measured in serum and brain with the Mouse Cytokine/Chemokine Magnetic Bead Panel (Cat MCYTOMAG-70K, EMD Millipore). Human amyloid beta and total tau was measured in brain using the Human Amyloid Beta and Tau Panel (Cat HNABTMAG-68K, EMD Millipore). AKT/mTOR signaling cascade phosphoproteins were measured using the Akt/mTOR Phosphoprotein Magnetic Bread 11-Plex Kit (Cat 48-611MAG, EMD Millipore). Assays were performed according to the manufacturer's protocols.

[7] = test system: phosphorylated mTOR; assay: MILLIPLEX Akt/mTOR phosphoprotein analysis; format: in vivo, transgenic APP mice; conditions: mean fluorescent intensity; 1.25 or 2.5 mg/kg
Description: as §1, with “Seven transgenic APP mice were treated with DMSO, and 7 transgenic APP mice were treated with 2.5 mg/kg of LCB.” left out
as §3

[8] = test system: beta-amyloid, synuclein and Tau; assay: LCB-03-0110 tested in cell culture: levels of misfolded proteins; format: cell-based; conditions: low doses (0.1-3 nM)
Description: shRNAs were designed to specifically knock down DDR1 and DDR2 receptors, and study their effects on clearance of misfolded protein accumulation in neurodegeneration. […] These shRNAs were then injected into animal models in vivo. […] A known DDR inhibitor, LCB-03-0110, was tested in cell culture. Low doses (0.1-3 nM) of LCB-03-0110 reduced the levels of beta-amyloid, synuclein and Tau in cell culture.

[9] = test system: APP mice; assay: Morris water maze; format: in vivo; conditions: 2.5 mg/kg for three weeks; by day three of training; average of three trials
Description: APP mice treated with either DMSO or 2.5 mg/kg LCB-03-0110 for 3 weeks were trained three times a day to find a submerged platform using visuospatial cues inside the apparatus. […] The mouse was allowed up to 60 seconds to find the platform, after which it would be removed from the apparatus after 5 seconds on the platform. If the animal was unable to find the platform, it was placed on the platform for 20 seconds. […] Data are shown as an average of three trials.

[10] = brain response values (Area/IS Area), single IP dose

- Tmax of the plasma:brain ratio ([4]; 2.5 mg/kg): about 2 hours
- plasma:brain ratio, comparison of doses ([4]; 2.5 mg/kg, among 10, 5, 2.5 and 1.25 mg/kg): highest plasma:brain ratio
- drug concentration in the brain, comparison of doses ([4]; 10 mg/kg, among 10, 5, 2.5 and 1.25 mg/kg): highest drug concentration in the brain
- time at which washed out completely from the brain [4, 10]: about 4 hours
- time of peak in the brain [4, 10]: about 1 hour
- blood brain barrier penetration ([4]; single IP dose 1.25, 2.5, 5 or 10 mg/kg): penetrates the blood brain barrier
Compound: Oc1cccc(Nc2ccnc3cc(-c4cccc(CN5CCOCC5)c4)sc23)c1 [LCB 03-0110, 3-(2-(3-(morpholinomethyl)phenyl)thieno[3,2-b]pyridine-7-ylamino)phenol]
- total Tau levels ([1]; 10 mg/kg or less, 12-15 month old APP mice, after one week): does not alter
- level of phosphorylated Tau (pS396) ([1]; brain homogenate, 10 mg/kg or less (10, 5, 2.5, 1.25 mg/kg) IP daily for 1 week, vs DMSO): reduces
- ratio of Tau (phosphorylated Tau (pS396)/total Tau) ([1]; brain homogenate, 10 mg/kg or less IP daily for 1 week, vs DMSO): reduces
- reducing the ratio of Tau: lower dosages compared with higher dosages ([1]; less than 2.5 mg/kg versus greater than 5.0 mg/kg): more effective
- soluble human Aβ40 levels ([2]; brain): significantly reduced
- soluble human Aβ42 levels ([2]; brain): significantly reduced
- insoluble human Aβ42 levels ([2]; brains of APP mice): significantly reduced
- levels of p-tau (AT180) (Western blot) ([3]; 1.25 or 2.5 mg/kg daily, after one week): reduced
- levels of APP/Aβ (Western blot) ([3]; 1.25 or 2.5 mg/kg daily, after one week, actin loading control): reduced
- levels of amyloid, densitometry analysis ([3]; n=5, 3 mutant APP mice, about 2.5 mg/kg or less): significantly reduced
- beta-amyloid (Aβ42) levels (Western blot) ([3]; soluble brain fraction, 1.25 or 2.5 mg/kg daily, one week): effective in reducing
- autophagy and autophagosomes (Beclin, Atg7, Atg12, LC3-I, LC3-II Western blot) [5]: stimulates autophagy and clears autophagosomes
- level of LC3-II/LC3-I, densitometry analysis of LC3-II levels ([5]; n=5): significantly reduces
- RANTES levels [6]: does not alter
- VEGF-A levels [6]: reduces VEGF-A to control levels
- brain inflammation [6]: reduced
- granulocyte colony-stimulating factor (G-CSF) [6]: reductions
- granulocyte-macrophage colony-stimulating factor (GM-CSF) [6]: reductions
- macrophage colony-stimulating factor (M-CSF) [6]: reductions
- macrophage inflammatory factor 1 alpha (MIP-1α) [6]: reductions
- macrophage inflammatory factor 1 beta (MIP-1β) [6]: reductions
- macrophage inflammatory protein 1 (MIP-1) [6]: reductions
- macrophage inflammatory protein 2 (MIP-2) [6]: reductions
- phosphorylated mTOR levels [7]: without altering
- levels of Tau [8]: reduced
- levels of beta-amyloid [8]: reduced
- levels of synuclein [8]: reduced
- reduction in the average time to find a submerged platform [9]: 30%
